Laboratory results reported in PubChem BioAssay AID1259408 (Genetic Toxicology Data Bank (GENE-TOX), 2018).
Active and inactive are the calls of the source. How the calls were made is not given here.

System: GENE-TOX genotoxicity assays, various organisms and cells
Assay: GENE-TOX mutagenicity studies
Details: for call: Assay Type: In vivo carcinogenicity studies
[1] = Species/Cell Type: Nonhuman, Assay Type: Sister-chromatid exchange (SCE) in vivo, Assay Code: SC3+D, Dose Response: With dose response, Evaluation Type: Evaluation B (Post-1980)
[2] = Species/Cell Type: Mammalian polychromatic erythrocytes, Assay Type: Micronucleus test, chromosome aberrations, Assay Code: MNTT, Evaluation Type: Evaluation B (Post-1980)
[3] = Species/Cell Type: Saccharomyces cerevisiae, Assay Type: Mitotic recombination or gene conversion, Assay Code: YEC+, Evaluation Type: Evaluation A (Pre-1980)
[4] = Species/Cell Type: Mammalian polychromatic erythrocytes, Assay Type: Micronucleus test, chromosome aberrations, Assay Code: MNT+U, Dose Response: Unconfirmed positive response, Evaluation Type: Evaluation B (Post-1980)
[5] = Species/Cell Type: Escherichia coli polA (W3119 vs P3478), Assay Type: Rec-assay, DNA effects (bacterial DNA repair), Assay Code: RE1T, Evaluation Type: Evaluation A (Pre-1980)
[6] = Species/Cell Type: Nonhuman, Assay Code: CCG+, Evaluation Type: Evaluation A (Pre-1980)
[7] = Species/Cell Type: Saccharomyces cerevisiae, Assay Type: Mitotic recombination or gene conversion, Assay Code: YEH-, Evaluation Type: Evaluation A (Pre-1980)
[8] = Species/Cell Type: Salmonella typhimurium (one or more of the five standard strains: TA98, TA100, TA1535, TA1537, and TA1538), Assay Type: Histidine reverse gene mutation, Ames assay, Assay Code: SAL-, Evaluation Type: Evaluation A (Pre-1980)
[9] = Species/Cell Type: Salmonella typhimurium (one or more of the five standard strains: TA98, TA100, TA1535, TA1537, and TA1538), Assay Type: Histidine reverse gene mutation, Ames assay, Assay Code: SAL+, Evaluation Type: Evaluation A (Pre-1980)
[10] = Species/Cell Type: Salmonella typhimurium (one or more of the five standard strains: TA98, TA100, TA1535, TA1537, and TA1538), Assay Type: Histidine reverse gene mutation, Ames assay, Assay Code: SAL+*, Activation: With metabolic activation, Evaluation Type: Evaluation A (Pre-1980)
[11] = Species/Cell Type: Drosophila melanogaster, Assay Type: Sex-linked recessive lethal gene mutation, Assay Code: SRLT, Evaluation Type: Evaluation A (Pre-1980)
[12] = Species/Cell Type: Arabidopsis species, Assay Type: Gene mutation, Assay Code: ARM+D, Dose Response: With dose response, Evaluation Type: Evaluation A (Pre-1980)

SMILES: C1=Cc2c3c1cccc3cc1ccc3ccccc3c21
- mutagenic call [1]: active; positive

SMILES: CCN(CC)c1nc(C)cc(OP(=S)(OC)OC)n1
- mutagenic call [2]: no conclusion

SMILES: CN1C[C@H](C(=O)N[C@]2(C)O[C@@]3(O)[C@@H]4CCCN4C(=O)[C@H](Cc4ccccc4)N3C2=O)C=C2c3cccc4[nH]cc(c34)C[C@H]21
- mutagenic call (Species/Cell Type: Rodents, Sex: Male, Assay Type: Dominant lethal test, Assay Code: DLT+, Evaluation Type: Evaluation A (Pre-1980)): active; positive

SMILES: O=[N+]([O-])c1ccc2c(ccc[n+]2[O-])c1
- mutagenic call (Species/Cell Type: Human diploid fibroblasts, Assay Type: Unscheduled DNA synthesis (UDS) in vitro, DNA effects, Assay Code: UDH-, Evaluation Type: Evaluation A (Pre-1980)): inactive; negative

SMILES: Cc1cc(Cl)ccc1OC(C)C(=O)O (centres undefined)
- mutagenic call [3]: active; positive

SMILES: Cc1ccc(S(=O)(=O)N(C)N=O)cc1
- mutagenic call (Species/Cell Type: Arabidopsis species, Assay Type: Gene mutation, Assay Code: ARM+, Evaluation Type: Evaluation A (Pre-1980)): active; positive

SMILES: CC[C@@H](CO)NCCN[C@@H](CC)CO
- mutagenic call [4]: active; positive

SMILES: CC(N)=O
- mutagenic call (Species/Cell Type: Escherichia coli polA (W3110 vs P3478), Assay Type: Rec-assay, DNA effects (bacterial DNA repair), Assay Code: RE2-, Evaluation Type: Evaluation A (Pre-1980)): inactive; negative
- mutagenic call [5]: no conclusion
- mutagenic call (Species/Cell Type: Fischer rat embryo (RLV/1706) cells, Assay Type: Cell transformation, viral enhanced, Assay Code: CTR+, Evaluation Type: Evaluation A (Pre-1980)): active; positive
- mutagenic call [4]: active; positive
- mutagenic call (Species/Cell Type: Mouse embryo (AKR/ME) cells, Assay Type: Cell transformation, Assay Code: CTK+, Evaluation Type: Evaluation A (Pre-1980)): active; positive
- mutagenic call (Species/Cell Type: Mouse, Sex: Male, Assay Type: Sperm morphology, Assay Code: SPI-, Evaluation Type: Evaluation A (Pre-1980)): inactive; negative
- call [6]: active; positive
- mutagenic call [7]: inactive; negative
- mutagenic call [8]: inactive; negative
- mutagenic call (Species/Cell Type: Salmonella typhimurium, Assay Type: Forward and reverse gene mutation, host-mediated assay, Assay Code: HMA-, Evaluation Type: Evaluation A (Pre-1980)): inactive; negative
- mutagenic call (Species/Cell Type: Syrian hamster embryo (SHE) cells, Assay Type: Cell transformation, clonal assay, Assay Code: CTC+, Evaluation Type: Evaluation A (Pre-1980)): active; positive

SMILES: Oc1ccc2ccccc2c1N=Nc1ccc(N=Nc2ccccc2)cc1
- mutagenic call (Species/Cell Type: Bacillus subtilis (H17 vs M45T), Assay Type: Rec-assay, spot test, DNA effects (bacterial DNA repair), Assay Code: REXT, Evaluation Type: Evaluation A (Pre-1980)): no conclusion

SMILES: O=CNc1nc(-c2ccc([N+](=O)[O-])s2)cs1
- mutagenic call [9]: active; positive

SMILES: C
- mutagenic call (Species/Cell Type: Nonhuman, Assay Type: Sister-chromatid exchange (SCE) in vitro, Assay Code: SC2+, Evaluation Type: Evaluation B (Post-1980)): active; positive

SMILES: OCc1c2c(cc3ccccc13)-c1ccccc1C1OC21 (centres undefined)
- mutagenic call (Species/Cell Type: Mouse prostate cells, Assay Type: Cell transformation, Assay Code: CTM+, Evaluation Type: Evaluation A (Pre-1980)): active; positive

SMILES: CCc1ccc(O)cc1
- mutagenic call (Species/Cell Type: Human lymphocytes, Assay Type: Sister-chromatid exchange (SCE) in vitro, Assay Code: SCLT, Evaluation Type: Evaluation B (Post-1980)): no conclusion
- mutagenic call (Species/Cell Type: Human, Assay Type: Sister-chromatid exchange (SCE) in vitro, Assay Code: SC1T, Evaluation Type: Evaluation B (Post-1980)): no conclusion

SMILES: O=C1OC(=O)c2c(Br)c(Br)c(Br)c(Br)c21
- mutagenic call [8]: inactive; negative

SMILES: Oc1c(Cl)cccc1Cl
- mutagenic call (Species/Cell Type: Allium cepa, Assay Type: Chromosome aberrations, Assay Code: ALC-, Evaluation Type: Evaluation A (Pre-1980)): inactive; negative

SMILES: Cc1cc2c(c3ccc4ccccc4c13)C(=O)CC2
- mutagenic call [10]: active; positive

SMILES: O=NN1CCCCC1C(=O)O (centres undefined)
- mutagenic call [11]: no conclusion

SMILES: COC1=CC(=O)C[C@@H](C)[C@]12Oc1c(Cl)c(OC)cc(OC)c1C2=O
- mutagenic call (Species/Cell Type: Allium cepa, Assay Type: Chromosome aberrations, Assay Code: ALC+, Evaluation Type: Evaluation A (Pre-1980)): active; positive
- mutagenic call (Species/Cell Type: Aspergillus nidulans, Assay Type: Aneuploidy, chromosome aberrations, Assay Code: ASN+, Evaluation Type: Evaluation A (Pre-1980)): active; positive
- mutagenic call (Species/Cell Type: Aspergillus nidulans, Assay Type: Mitotic recombination, Assay Code: ASGT, Evaluation Type: Evaluation A (Pre-1980)): no conclusion
- mutagenic call (Species/Cell Type: Bacillus subtilis (H17 vs M45), Assay Type: Rec-assay, spot test, DNA effects (bacterial DNA repair), Assay Code: REWT, Evaluation Type: Evaluation A (Pre-1980)): no conclusion
- mutagenic call [5]: no conclusion
- mutagenic call (Species/Cell Type: Mammalian polychromatic erythrocytes, Assay Type: Micronucleus test, chromosome aberrations, Assay Code: MNTT, Evaluation Type: Evaluation A (Pre-1980)): no conclusion
- mutagenic call (Species/Cell Type: Mouse, Sex: Male, Assay Type: Sperm morphology, Assay Code: SPI+, Evaluation Type: Evaluation A (Pre-1980)): active; positive
- call (Species/Cell Type: Nonhuman, Assay Code: CCG+L, Evaluation Type: Evaluation A (Pre-1980)): active; positive
- mutagenic call [1]: active; positive
- mutagenic call [7]: inactive; negative
- mutagenic call (Species/Cell Type: Salmonella typhimurium (one or more of the five standard strains: TA98, TA100, TA1535, TA1537, and TA1538), Assay Type: Histidine reverse gene mutation, Ames assay, Assay Code: SALT, Evaluation Type: Evaluation A (Pre-1980)): no conclusion

SMILES: COC(=O)[C@H]1[C@H]2C[C@@H]3c4[nH]c5cc(OC)ccc5c4CCN3C[C@H]2C[C@@H](OC(=O)c2cc(OC)c(OC)c(OC)c2)[C@@H]1OC
- mutagenic call (Species/Cell Type: Aspergillus nidulans, Assay Type: Aneuploidy, chromosome aberrations, Assay Code: ASNT, Evaluation Type: Evaluation A (Pre-1980)): no conclusion
- call [6]: active; positive

SMILES: Oc1ccc2ncccc2c1
- mutagenic call [8]: inactive; negative

SMILES: CCCCCN(CCCCC)N=O
- mutagenic call (Species/Cell Type: Chinese hamster lung (V79) cells, Assay Type: Forward gene mutation at the HPRT or ouabain locus, Assay Code: V79+, Evaluation Type: Evaluation A (Pre-1980)): active; positive
- mutagenic call [10]: active; positive

SMILES: O=[N+]([O-])c1ccc2[nH]ncc2c1
- mutagenic call [9]: active; positive

SMILES: C=CCN(N=O)C(N)=O
- mutagenic call [12]: active; positive
- mutagenic call [3]: active; positive

SMILES: CC(Cl)CCl (centres undefined)
- mutagenic call [9]: active; positive

SMILES: O[C@H]1[C@@H](O)Cc2c(cc3ccc4cccc5ccc2c3c45)[C@@H]1O
- mutagenic call (Species/Cell Type: Chinese hamster lung (V79) cells, Assay Type: Forward gene mutation at the HPRT or ouabain locus, Assay Code: V79-, Evaluation Type: Evaluation A (Pre-1980)): inactive; negative

SMILES: CC(C)C(N)C(=O)O (centres undefined)
- mutagenic call [5]: no conclusion

SMILES: COc1c2occc2c(OC)c2c(=O)cc(C)oc12
- mutagenic call (Species/Cell Type: Human, Assay Type: Sister-chromatid exchange (SCE) in vitro, Assay Code: SC1T, Evaluation Type: Evaluation A (Pre-1980)): no conclusion

SMILES: CCOP(=O)(OCC)Oc1ccc([N+](=O)[O-])cc1
- mutagenic call (Species/Cell Type: Nonhuman, Assay Type: Sister-chromatid exchange (SCE) in vitro, Assay Code: SC2+D, Dose Response: With dose response, Evaluation Type: Evaluation B (Post-1980)): active; positive

SMILES: [Cl-].[Cl-].[NH2-].[NH2-].[NH2-].[Pt+2]
- mutagenic call (Species/Cell Type: Chinese hamster ovary (CHO) cells, Assay Type: Forward gene mutation at the HPRT locus, Assay Code: CHO+, Evaluation Type: Evaluation B (Post-1980)): active; positive

SMILES: [Cl][Rh]([Cl])[Cl]
- mutagenic call (Species/Cell Type: Bacillus subtilis (H17 vs M45), Assay Type: Rec-assay, spot test, DNA effects (bacterial DNA repair), Assay Code: REW+, Evaluation Type: Evaluation A (Pre-1980)): active; positive

SMILES: CCBr
- mutagenic call [11]: no conclusion

SMILES: c1cc2ccc3ccc(C4CO4)c4ccc(c1)c2c34 (centres undefined)
- mutagenic call [9]: active; positive

SMILES: CN(N=O)C(=O)NC(N)=O
- mutagenic call [12]: active; positive

SMILES: CN(C)C(CSC(N)=O)CSC(N)=O
- mutagenic call [2]: no conclusion
- mutagenic call (Species/Cell Type: Nonhuman bone marrow, Assay Type: Chromosome aberrations, in vivo, Assay Code: CY#-, Evaluation Type: Evaluation A (Pre-1980)): inactive; negative
